Measurements from PubChem BioAssay AID248 (DTP/NCI, 2004).
Toxic doses and inconclusive results are not listed. No stated cut-off is given here; in the data, active means T/C of 150% or more; inactive means T/C below 125%.

System: L1210 leukemia ip in BDF1 mice, survival T/C
Assay: NCI In Vivo Anticancer Drug Screen. Data for tumor model L1210 Leukemia (intraperitoneal) in B6D2F1 (BDF1) mice
Conditions: endpoint: mean survival time, higher = longer survival
In short: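 Mice bearing the transplanted tumor received compound or vehicle. Survival of the treated group was divided by that of the vehicle-treated control group to give the ratio.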

[1] = dose: 100.0 mg/kg/injection, schedule: Q01DX009 (ip), vehicle: Klucel (hydroxypropylcellulose) (HPC)
[2] = dose: 200.0 mg/kg/injection, schedule: Q01DX009 (ip), vehicle: Klucel (hydroxypropylcellulose) (HPC)
[3] = dose: 400.0 mg/kg/injection, schedule: Q01DX009 (ip), vehicle: Klucel (hydroxypropylcellulose) (HPC)
[4] = dose: 100.0 mg/kg/injection, schedule: Q04DX003 (ip), vehicle: saline with Tween-80
[5] = dose: 200.0 mg/kg/injection, schedule: Q04DX003 (ip), vehicle: saline with Tween-80
[6] = dose: 400.0 mg/kg/injection, schedule: Q04DX003 (ip), vehicle: saline with Tween-80
[7] = dose: 75.0 mg/kg/injection, schedule: Q01DX001 (ip), vehicle: saline
[8] = dose: 150.0 mg/kg/injection, schedule: Q01DX001 (ip), vehicle: saline
[9] = dose: 50.0 mg/kg/injection, schedule: Q04DX002 (ip), vehicle: saline
[10] = dose: 50.0 mg/kg/injection, schedule: Q01DX009 (ip), vehicle: Klucel (hydroxypropylcellulose) (HPC)
[11] = dose: 50.0 mg/kg/injection, schedule: Q01DX009 (ip), vehicle: saline with Tween-80
[12] = dose: 100.0 mg/kg/injection, schedule: Q01DX009 (ip), vehicle: saline with Tween-80
[13] = dose: 200.0 mg/kg/injection, schedule: Q01DX009 (ip), vehicle: saline with Tween-80

Measured: T/C

CC(=O)N(c1ccccc1)c1ccccc1
inactive: [1] 95 % of control | dose: 100.0 mg/kg/injection, schedule: Q04DX002 (ip), vehicle: Klucel (hydroxypropylcellulose) (HPC) 91 % of control | [2] 95 % of control | dose: 200.0 mg/kg/injection, schedule: Q04DX002 (ip), vehicle: Klucel (hydroxypropylcellulose) (HPC) 98 % of control | [3] 95 % of control | dose: 400.0 mg/kg/injection, schedule: Q04DX002 (ip), vehicle: Klucel (hydroxypropylcellulose) (HPC) 112 % of control

COc1ccc(C(O)C(C)C(O)(C(F)(F)F)C(F)(F)F)cc1 (centres undefined)
inactive: dose: 100.0 mg/kg/injection, schedule: Q01DX001 (ip), vehicle: Klucel (hydroxypropylcellulose) (HPC) 98 % of control | dose: 100.0 mg/kg/injection, schedule: Q04DX003 (ip), vehicle: Klucel (hydroxypropylcellulose) (HPC) 96 % of control | dose: 200.0 mg/kg/injection, schedule: Q01DX001 (ip), vehicle: Klucel (hydroxypropylcellulose) (HPC) 101 % of control | dose: 200.0 mg/kg/injection, schedule: Q04DX003 (ip), vehicle: Klucel (hydroxypropylcellulose) (HPC) 98 % of control | dose: 400.0 mg/kg/injection, schedule: Q01DX001 (ip), vehicle: Klucel (hydroxypropylcellulose) (HPC) 111 % of control | dose: 400.0 mg/kg/injection, schedule: Q04DX003 (ip), vehicle: Klucel (hydroxypropylcellulose) (HPC) 93 % of control

O=C1CC(C(F)(F)F)(C(F)(F)F)O1
inactive: dose: 100.0 mg/kg/injection, schedule: Q04DX002 (ip), vehicle: other 120 % of control | dose: 200.0 mg/kg/injection, schedule: Q04DX002 (ip), vehicle: other 102 % of control | dose: 400.0 mg/kg/injection, schedule: Q04DX002 (ip), vehicle: other 102 % of control

COc1cc(/C=N/O)cc(I)c1O
inactive: [1] 104 % of control | [2] 101 % of control | [3] 101 % of control

O=S(=O)(O)C(O)c1ccccc1O (centres undefined)
inactive: dose: 100.0 mg/kg/injection, schedule: Q01DX001 (ip), vehicle: saline 100 % of control | dose: 200.0 mg/kg/injection, schedule: Q01DX001 (ip), vehicle: saline 103 % of control | dose: 400.0 mg/kg/injection, schedule: Q01DX001 (ip), vehicle: saline 102 % of control

O=C1OC(c2ccccc2)C=C1Nc1ccccc1 (centres undefined)
inactive: [4] 95 % of control | [5] 95 % of control | [6] 91 % of control

COc1ccccc1CN1CCCN(Cc2ccccc2OC)C1c1ccc(C2N(Cc3ccccc3OC)CCCN2Cc2ccccc2OC)cc1
inactive: dose: 100.0 mg/kg/injection, schedule: Q01DX001 (ip), vehicle: acetone 102 % of control | dose: 200.0 mg/kg/injection, schedule: Q01DX001 (ip), vehicle: acetone 96 % of control | dose: 400.0 mg/kg/injection, schedule: Q01DX001 (ip), vehicle: acetone 96 % of control

CCOP(=O)(OCC)Oc1cc(C)c(SC)c(C)c1
inactive: [7] 89 % of control | [8] 101 % of control

CC(c1ccccc1)[P+](c1ccccc1)(c1ccccc1)c1ccccc1 (centres undefined)
inactive: dose: 12.5 mg/kg/injection, schedule: Q04DX002 (ip), vehicle: saline 106 % of control | dose: 25.0 mg/kg/injection, schedule: Q04DX002 (ip), vehicle: saline 111 % of control | [9] 97 % of control

CCCCCCCCCCCCCCCCC(=O)OCC
inactive: dose: 75.0 mg/kg/injection, schedule: Q01DX001 (ip), vehicle: carboxymethylcellulose (CMC) 91 % of control

CC(CCCO)C1CCC2C3CCC4CC5(CCC4(C)C3CCC12C)OCCO5 (centres undefined)
inactive: dose: 100.0 mg/kg/injection, schedule: Q01DX009 (sc), vehicle: steriod suspending solution 104 % of control | dose: 200.0 mg/kg/injection, schedule: Q01DX009 (sc), vehicle: steriod suspending solution 92 % of control | dose: 400.0 mg/kg/injection, schedule: Q01DX009 (sc), vehicle: steriod suspending solution 94 % of control

COc1ccc(-c2oc3cc4c(cc3c2-c2ccc(OC)cc2)CCCC4)cc1
inactive: [4] 98 % of control | [5] 98 % of control | [6] 102 % of control

Cc1cc(/C=C\c2ccc3ccccc3[n+]2C)c(O)c2ncccc12
inactive: dose: 100.0 mg/kg/injection, schedule: Q01DX001 (ip), vehicle: carboxymethylcellulose (CMC) 110 % of control | dose: 200.0 mg/kg/injection, schedule: Q01DX001 (ip), vehicle: carboxymethylcellulose (CMC) 93 % of control

O=C(NC(=S)NCc1ccccc1)c1ccccc1
inactive: [7] 98 % of control | [8] 93 % of control | dose: 300.0 mg/kg/injection, schedule: Q01DX001 (ip), vehicle: saline 98 % of control

COc1ccc(C(CC(=O)c2ccccc2)Sc2ccccc2N)cc1OC (centres undefined)
inactive: [10] 97 % of control | dose: 100.0 mg/kg/injection, schedule: Q01DX005 (ip), vehicle: Klucel (hydroxypropylcellulose) (HPC) 101 % of control | [1] 94 % of control | dose: 100.0 mg/kg/injection, schedule: Q04DX002 (ip), vehicle: saline with Tween-80 98 % of control | dose: 200.0 mg/kg/injection, schedule: Q01DX005 (ip), vehicle: Klucel (hydroxypropylcellulose) (HPC) 108 % of control | [2] 94 % of control | dose: 200.0 mg/kg/injection, schedule: Q04DX002 (ip), vehicle: saline with Tween-80 106 % of control | dose: 400.0 mg/kg/injection, schedule: Q04DX002 (ip), vehicle: saline with Tween-80 113 % of control

Nc1nc(N)nc(Nc2ccc([As]=O)cc2)n1 (centres undefined)
inactive: dose: 25.0 mg/kg/injection, schedule: Q01DX009 (ip), vehicle: Klucel (hydroxypropylcellulose) (HPC) 112 % of control | [10] 117 % of control | [1] 102 % of control

CC(C)CC(=O)c1ccccc1
inactive: [9] 104 % of control | dose: 100.0 mg/kg/injection, schedule: Q04DX002 (ip), vehicle: saline 97 % of control | dose: 200.0 mg/kg/injection, schedule: Q04DX002 (ip), vehicle: saline 111 % of control

CC12CCCCC1=CC(OC(=O)c1ccc([N+](=O)[O-])cc1)CC2 (centres undefined)
inactive: [11] 94 % of control | [12] 98 % of control | [13] 94 % of control

Cn1cnc([N+](=O)[O-])c1[Se]c1ncnc2c1ccn2C1OC(CO)C(O)C1O (centres undefined)
inactive: dose: 6.25 mg/kg/injection, schedule: Q01DX009 (ip), vehicle: saline 102 % of control | dose: 12.5 mg/kg/injection, schedule: Q01DX009 (ip), vehicle: saline 105 % of control | dose: 25.0 mg/kg/injection, schedule: Q01DX009 (ip), vehicle: saline 97 % of control

Cc1cccc(S(=O)(=O)F)c1
inactive: [11] 91 % of control | [12] 100 % of control | dose: 100.0 mg/kg/injection, schedule: Q04DX003 (ip), vehicle: acetone 101 % of control | [13] 88 % of control | dose: 200.0 mg/kg/injection, schedule: Q04DX003 (ip), vehicle: acetone 97 % of control
